# Key:
# Test in all cases: relative viability (nuclei count vs DMSO), 5 days (fraction); higher = more cells survive
# [1] = compound: C1CC2=C(C1)C=C(C=C2)OC3=NC(=C4C(=N3)N(C=N4)CC5=CC=C(C=C5)C6=CC=CC=C6)N[C@@H](CC7=CC=CC=C7)CO [QS11] + Nc1ncn([C@H]2C[C@H](O)[C@@H](CO)O2)c(=O)n1 [Decitabine] (partner 2 µM)
# Procedure, shortened: (§1)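 Relative viability equals treated-well nuclei counts divided by vehicle-well nuclei counts. Counts came from 4× images of lung cancer cell lines grown in 1536-well plates for 5 days after pin-tool dosing on the day after seeding. Dosing used one drug alone or a fixed anchor-drug dose plus five library-drug doses (not always all listed) in √10 steps, and values are medians of duplicate plates.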
# [2] = compound: CC1=C(C=C(C=C1)NC(=O)C2=CC(=CC=C2)C(C)(C)C#N)NC3=CC4=C(C=C3)N=CN(C4=O)C [AZ628] + CCNC(=O)c1noc(-c2cc(C(C)C)c(O)cc2O)c1-c1ccc(CN2CCOCC2)cc1 [Luminespib] (partner 0.01 µM)
# Procedure, shortened: as §1
# [3] = compound: C[As](C)SC[C@H](NC(=O)CC[C@H](N)C(=O)O)C(=O)NCC(=O)O [Darinaparsin] + CC(=O)Nc1cccc(-n2c(=O)n(C3CC3)c(=O)c3c(Nc4ccc(I)cc4F)n(C)c(=O)c(C)c32)c1 [Trametinib] (partner 0.02 µM)
# Procedure, shortened: as §1
# [4] = compound: C[As](C)SC[C@H](NC(=O)CC[C@H](N)C(=O)O)C(=O)NCC(=O)O [Darinaparsin] + CC1(C)CCC(c2ccc(Cl)cc2)=C(CN2CCN(c3ccc(C(=O)NS(=O)(=O)c4ccc(N[C@H](CCN5CCOCC5)CSc5ccccc5)c(S(=O)(=O)C(F)(F)F)c4)cc3)CC2)C1 [Navitoclax] (partner 0.5 µM)
# Procedure, shortened: as §1
# [5] = compound: C[As](C)SC[C@H](NC(=O)CC[C@H](N)C(=O)O)C(=O)NCC(=O)O [Darinaparsin] + Cc1nc(Nc2ncc(C(=O)Nc3c(C)cccc3Cl)s2)cc(N2CCN(CCO)CC2)n1 [Dasatinib] (partner 0.075 µM)
# Procedure, shortened: as §1
cell line,measurement,setting,value
LCLC-97TM1,relative viability,[1]; first compound 0.253 µM,0.213
same,relative viability,[1]; first compound 2.53 µM,0.257
same,relative viability,[1]; first compound 8 µM,0.219
same,relative viability,[2]; first compound 0.08 µM,0.804
same,relative viability,[2]; first compound 0.253 µM,0.659
same,relative viability,[2]; first compound 0.8 µM,0.642
same,relative viability,[2]; first compound 2.53 µM,0.464
same,relative viability,[2]; first compound 8 µM,0.287
same,relative viability,[3]; first compound 0.08 µM,0.264
same,relative viability,[3]; first compound 0.8 µM,0.237
same,relative viability,[3]; first compound 2.53 µM,0.204
same,relative viability,[3]; first compound 8 µM,0.225
same,relative viability,[4]; first compound 0.08 µM,0.383
same,relative viability,[4]; first compound 0.8 µM,0.947
same,relative viability,[4]; first compound 2.53 µM,0.398
same,relative viability,[4]; first compound 8 µM,0.579
same,relative viability,[5]; first compound 0.08 µM,0.922
same,relative viability,[5]; first compound 0.8 µM,0.664
same,relative viability,[5]; first compound 2.53 µM,0.615
same,relative viability,[5]; first compound 8 µM,0.98
